Assay results published in US10556884B2, “Pesticidally active heterocyclic derivatives with sulphur containing substituents” (SYNGENTA PARTICIPATIONS AG, priority 2015, dated 2020).
Each block holds one compound with its values, some of them ahead of it.

Legend:
[1] = system: Myzus persicae (Green Peach Aphid); assay: Myzus persicae systemic activity, pea seedlings; assay type: in vivo; details: 144 h, test rate of 24 ppm, 6 days after placing seedlings into test solutions
[2] = system: Frankliniella occidentalis (Western Flower Thrips); assay: Frankliniella occidentalis feeding/contact activity, sunflower leaf discs; assay type: in vivo; details: foliar, 168 h, application rate of 200 ppm, population of mixed ages, 7 days after infestation
Protocol: Example B4: Frankliniella occidentalis (Western Flower Thrips): Feeding/Contact Activity
(§1) Sunflower leaf discs were placed on agar in 24-well microtiter plates and sprayed with aqueous test solutions prepared from 10′000 DMSO stock solutions. After drying the leaf discs were infested with a Frankliniella population of mixed ages. The samples were assessed for mortality 7 days after infestation.

[3] = system: Diabrotica Balteata (Corn Root Worm); assay: Diabrotica balteata L2 larvae on maize sprouts; assay type: in vivo; details: 96 h, application rate of 200 ppm, L2 larvae, 4 days after infestation, read-out: effect in at least one of the two categories (mortality or growth inhibition)
Protocol: Example B2: Diabrotica Balteata (Corn Root Worm)
Maize sprouts placed onto an agar layer in 24-well microtiter plates were treated with aqueous test solutions prepared from 10′000 ppm DMSO stock solutions by spraying. After drying, the plates were infested with L2 larvae (6 to 10 per well). The samples were assessed for mortality and growth inhibition in comparison to untreated samples 4 days after infestation.

[4] = system: Myzus persicae (Green Peach Aphid); assay: Myzus persicae feeding/contact activity, sunflower leaf discs; assay type: in vivo; details: foliar, 144 h, application rate of 200 ppm, feeding/contact, population of mixed ages, 6 days after infestation, read-out: mortality
Protocol: Example B5: Myzus persicae (Green Peach Aphid): Feeding/Contact Activity
Sunflower leaf discs were placed onto agar in a 24-well microtiter plate and sprayed with aqueous test solutions prepared from 10′000 ppm DMSO stock solutions. After drying, the leaf discs were infested with an aphid population of mixed ages. The samples were assessed for mortality 6 days after infestation.

[5] = system: Plutella xylostella (Diamond Back Moth); assay: Plutella xylostella L2 larvae on artificial diet; assay type: in vivo; details: 120 h, application rate of 200 ppm, L2 larvae, 5 days after infestation, read-out: effect in at least one of the two categories (mortality or growth inhibition)
Protocol: Example B7: Plutella xylostella (Diamond Back Moth)
24-well microtiter plates with artificial diet were treated with aqueous test solutions prepared from 10′000 ppm DMSO stock solutions by pipetting. After drying, the plates were infested with L2 larvae (10 to 15 per well). The samples were assessed for mortality and growth inhibition in comparison to untreated samples 5 days after infestation.

[6] = system: Euschistus heros (Neotropical Brown Stink Bug); assay: Euschistus heros N2 nymphs on soybean leaves; assay type: in vivo; details: 120 h, application rate of 200 ppm, 5 days after infestation, read-out: effect in at least one of the two categories (mortality or growth inhibition)
[7] = system: Spodoptera littoralis (Egyqptian Cotton Leaf Worm); assay: Spodoptera littoralis L1 larvae on sprayed cotton leaf discs; assay type: in vivo; details: foliar, 72 h, application rate of 200 ppm, L1 larvae, 3 days after infestation, read-out: control (mortality, anti-feeding effect, growth inhibition)
Protocol: Example B8: Spodoptera littoralis (Egyqptian Cotton Leaf Worm)
Cotton leaf discs were placed onto agar in 24-well microtiter plates and sprayed with aqueous test solutions prepared from 10′000 ppm DMSO stock solutions. After drying the leaf discs were infested with five L1 larvae. The samples were assessed for mortality, anti-feeding effect, and growth inhibition in comparison to untreated samples 3 days after infestation. Control of Spodoptera littoralis by a test sample is given when at least one of the categories mortality, anti-feedant effect, and growth inhibition is higher than the untreated sample.

[8] = system: Tetranychus urticae (Two-Spotted Spider Mite); assay: Tetranychus urticae feeding/contact activity, bean leaf discs; assay type: in vivo; details: foliar, 192 h, application rate of 200 ppm, mixed population (mobile stages), 8 days after infestation
Protocol: Example B10: Tetranychus urticae (Two-Spotted Spider Mite): Feeding/Contact Activity
Bean leaf discs on agar in 24-well microtiter plates were sprayed with aqueous test solutions prepared from 10′000 ppm DMSO stock solutions. After drying the leaf discs were infested with a mite population of mixed ages. The samples were assessed for mortality on mixed population (mobile stages) 8 days after infestation.

[9] = system: Bemisia tabaci (Cotton White Fly); assay: Bemisia tabaci feeding/contact activity, cotton leaf discs; assay type: in vivo; details: foliar, 144 h, application rate of 200 ppm, adult white flies, 6 days after incubation
Protocol: Example B1: Bemisia tabaci (Cotton White Fly): Feeding/Contact Activity
Cotton leaf discs were placed on agar in 24-well microtiter plates and sprayed with aqueous test solutions prepared from 10′000 ppm DMSO stock solutions. After drying the leaf discs were infested with adult white flies. The samples were checked for mortality 6 days after incubation.

[10] = system: Spodoptera littoralis (Egyqptian Cotton Leaf Worm); assay: Spodoptera littoralis, uptake by lettuce roots from agar; assay type: in vivo; details: 144 h, test rate of 12.5 ppm, 6 days after infestation, read-out: effect in at least one of the three categories (mortality, anti-feeding, or growth inhibition)
Text: Example B9: Spodoptera littoralis (Egyqptian Cotton Leaf Worm)
Test compounds were applied by pipette from 10′000 ppm DMSO stock solutions into 24-well plates and mixed with agar. Lettuce seeds were placed onto the agar and the multi well plate was closed by another plate which contained also agar. After 7 days the compound was absorbed by the roots and the lettuce grew into the lid plate. The lettuce leaves were then cut off into the lid plate. Spodoptera eggs were pipetted through a plastic stencil onto a humid gel blotting paper and the lid plate was closed with it. The samples were assessed for mortality, anti-feedant effect and growth inhibition in comparison to untreated samples 6 days after infestation.

[11] = system: Thrips tabaci (Onion Thrips); assay: Thrips tabaci feeding/contact activity, sunflower leaf discs; assay type: in vivo; details: foliar, 144 h, application rate of 200 ppm, population of mixed ages, 6 days after infestation
Protocol: Example B11: Thrips tabaci (Onion Thrips) Feeding/Contact Activity
as §1, with “10′000 ppm” for “10′000”, “thrips” for “Frankliniella”, “6” for “7”

Structure (SMILES): CCS(=O)(=O)c1cc(NC(=O)C2CC2)cnc1-c1nnc(-c2cc(C(F)(F)F)ccn2)n1C [A2, N-[5-ethylsulfonyl-6-[4-methyl-5-[4-(trifluoromethyl)-2-pyridyl]-1,2,4-triazol-3-yl]-3-pyridyl]cyclopropanecarboxamide]
mortality at 24 ppm [1]: ≥ 80%
mortality at 200 ppm [2]: ≥ 80%
percent effect (mortality or growth inhibition) at 200 ppm [3]: ≥ 80%
mortality at 200 ppm [4]: ≥ 80%

Structure (SMILES): CCS(=O)(=O)c1ccc(NC(=O)C2CC2)nc1-c1nnc(-c2cc(C(F)(F)F)ccn2)n1C [A6, N-[5-ethylsulfonyl-6-[4-methyl-5-[4-(trifluoromethyl)-2-pyridyl]-1,2,4-triazol-3-yl]-2-pyridyl]cyclopropanecarboxamide]
mortality at 24 ppm [1]: ≥ 80%
mortality at 200 ppm [2]: ≥ 80%
mortality at 200 ppm [4]: ≥ 80%

Structure (SMILES): CCS(=O)(=O)c1cc(N(C)C(=O)C2CC2)cnc1-c1nnc(-c2cc(C(F)(F)F)ccn2)n1C [A7, N-[5-ethylsulfonyl-6-[4-methyl-5-[4-(trifluoromethyl)-2-pyridyl]-1,2,4-triazol-3-yl]-3-pyridyl]-N-methyl-cyclopropanecarboxamide]
percent effect (mortality or growth inhibition) at 200 ppm [5]: ≥ 80%
mortality at 24 ppm [1]: ≥ 80%
percent effect (mortality or growth inhibition) at 200 ppm [6]: ≥ 80%
mortality at 200 ppm [2]: ≥ 80%
mortality at 200 ppm [4]: ≥ 80%

Structure (SMILES): CCS(=O)(=O)c1cc(NC2CC2)cnc1-c1nnc(-c2cc(C(F)(F)F)ccn2)n1C [A9, N-cyclopropyl-5-ethylsulfonyl-6-[4-methyl-5-[4-(trifluoromethyl)-2-pyridyl]-1,2,4-triazol-3-yl]pyridin-3-amine]
mortality at 24 ppm [1]: ≥ 80%
mortality at 200 ppm [7]: ≥ 80%
percent effect (mortality or growth inhibition) at 200 ppm [6]: ≥ 80%
mortality at 200 ppm [8]: ≥ 80%
mortality at 200 ppm [4]: ≥ 80%

Structure (SMILES): CCS(=O)(=O)c1ccc(C(=O)N(C)C2CC2)nc1-c1nnc(-c2cc(C(F)(F)F)ccn2)n1C [A17, N-cyclopropyl-5-ethylsulfonyl-N-methyl-6-[4-methyl-5-[4-(trifluoromethyl)-2-pyridyl]-1,2,4-triazol-3-yl]pyridine-2-carboxamide]
mortality at 24 ppm [1]: ≥ 80%
mortality at 200 ppm [9]: ≥ 80%
mortality at 200 ppm [4]: ≥ 80%

Structure (SMILES): CCS(=O)(=O)c1cc(C(=O)NC2CC2)cnc1-c1nnc(-c2cc(C(F)(F)F)ccn2)n1C [A18, N-cyclopropyl-5-ethylsulfonyl-6-[4-methyl-5-[4-(trifluoromethyl)-2-pyridyl]-1,2,4-triazol-3-yl]pyridine-3-carboxamide]
mortality at 24 ppm [1]: ≥ 80%
mortality at 200 ppm [8]: ≥ 80%

melting point: 229 to 231 °C
Structure (SMILES): CCS(=O)(=O)c1cc(N(C(=O)C2CC2)S(C)(=O)=O)cnc1-c1nnc(-c2cc(C(F)(F)F)ccn2)n1C [A20, N-[5-ethylsulfonyl-6-[4-methyl-5-[4-(trifluoromethyl)-2-pyridyl]-1,2,4-triazol-3-yl]-3-pyridyl]-N-methylsulfonyl-cyclopropanecarboxamide]

melting point: 211 to 213 °C
Structure (SMILES): CCS(=O)(=O)c1cc(C(=O)NC2(C#N)CC2)cnc1-c1nnc(-c2cc(C(F)(F)F)ccn2)n1C [A23, N-(1-cyanocyclopropyl)-5-ethylsulfonyl-6-[4-methyl-5-[4-(trifluoromethyl)-2-pyridyl]-1,2,4-triazol-3-yl]pyridine-3-carboxamide]

Structure (SMILES): CCS(=O)(=O)c1cc(C(=O)NCC#N)cnc1-c1nnc(-c2cc(C(F)(F)F)ccn2)n1C [A26, N-(cyanomethyl)-5-ethylsulfonyl-6-[4-methyl-5-[4-(trifluoromethyl)-2-pyridyl]-1,2,4-triazol-3-yl]pyridine-3-carboxamide]
mortality at 24 ppm [1]: ≥ 80%
mortality at 200 ppm [8]: ≥ 80%
mortality at 200 ppm [4]: ≥ 80%

Structure (SMILES): CCS(=O)(=O)c1cc(N(C)N)cnc1-c1nnc(-c2cc(C(F)(F)F)ccn2)n1C [A30, 1-[5-ethylsulfonyl-6-[4-methyl-5-[4-(trifluoromethyl)-2-pyridyl]-1,2,4-triazol-3-yl]-3-pyridyl]-1-methyl-hydrazine]
percent effect (mortality or growth inhibition) at 200 ppm [6]: ≥ 80%
mortality at 200 ppm [4]: ≥ 80%

Structure (SMILES): CCS(=O)(=O)c1ccc(NCC(F)(F)F)nc1-c1nnc(-c2cc(C(F)(F)F)ccn2)n1C [A32, 5-ethylsulfonyl-6-[4-methyl-5-[4-(trifluoromethyl)-2-pyridyl]-1,2,4-triazol-3-yl]-N-(2,2,2-trifluoroethyl)pyridin-2-amine]
mortality at 200 ppm [8]: ≥ 80%

Structure (SMILES): CCS(=O)(=O)c1ccc(C(=O)O)nc1-c1nnc(-c2cc(C(F)(F)F)ccn2)n1C [A34, 5-ethylsulfonyl-6-[4-methyl-5-[4-(trifluoromethyl)-2-pyridyl]-1,2,4-triazol-3-yl]pyridine-2-carboxylic Acid]
percent effect (mortality, anti-feeding or growth inhibition) at 12.5 ppm [10]: ≥ 80%

Structure (SMILES): CCS(=O)(=O)c1ccc(N)nc1-c1nnc(-c2cc(C(F)(F)F)ccn2)n1C [A36, 5-ethylsulfonyl-6-[4-methyl-5-[4-(trifluoromethyl)-2-pyridyl]-1,2,4-triazol-3-yl]pyridin-2-amine]
mortality at 24 ppm [1]: ≥ 80%
percent effect (mortality or growth inhibition) at 200 ppm [6]: ≥ 80%
mortality at 200 ppm [4]: ≥ 80%

Structure (SMILES): CCS(=O)(=O)c1ccc(NC(=O)OC(C)(C)C)nc1-c1nnc(-c2cc(C(F)(F)F)ccn2)n1C [A37, tert-butyl N-[5-ethylsulfonyl-6-[4-methyl-5-[4-(trifluoromethyl)-2-pyridyl]-1,2,4-triazol-3-yl]-2-pyridyl]carbamate]
percent effect (mortality or growth inhibition) at 200 ppm [5]: ≥ 80%
mortality at 24 ppm [1]: ≥ 80%
mortality at 200 ppm [7]: ≥ 80%
mortality at 200 ppm [2]: ≥ 80%

Structure (SMILES): CCS(=O)(=O)c1cc(Cl)c(N)nc1-c1nnc(-c2cc(C(F)(F)F)ccn2)n1C [A42, 3-chloro-5-ethylsulfonyl-6-[4-methyl-5-[4-(trifluoromethyl)-2-pyridyl]-1,2,4-triazol-3-yl]pyridin-2-amine]
percent effect (mortality or growth inhibition) at 200 ppm [5]: ≥ 80%
mortality at 24 ppm [1]: ≥ 80%
mortality at 200 ppm [7]: ≥ 80%
mortality at 200 ppm [11]: ≥ 80%
mortality at 200 ppm [9]: ≥ 80%
percent effect (mortality or growth inhibition) at 200 ppm [3]: ≥ 80%
mortality at 200 ppm [4]: ≥ 80%

Structure (SMILES): CCS(=O)(=O)c1cc(Br)c(N)nc1-c1nnc(-c2cc(C(F)(F)F)ccn2)n1C [A43]
percent effect (mortality or growth inhibition) at 200 ppm [5]: ≥ 80%
mortality at 24 ppm [1]: ≥ 80%
mortality at 200 ppm [7]: ≥ 80%
mortality at 200 ppm [11]: ≥ 80%
mortality at 200 ppm [9]: ≥ 80%
percent effect (mortality or growth inhibition) at 200 ppm [3]: ≥ 80%
mortality at 200 ppm [4]: ≥ 80%

Structure (SMILES): CCS(=O)(=O)c1cc(N)c(Br)nc1-c1nnc(-c2cc(C(F)(F)F)ccn2)n1C [A45]
percent effect (mortality or growth inhibition) at 200 ppm [5]: ≥ 80%
percent effect (mortality, anti-feeding or growth inhibition) at 12.5 ppm [10]: ≥ 80%
mortality at 200 ppm [7]: ≥ 80%
percent effect (mortality or growth inhibition) at 200 ppm [3]: ≥ 80%
